Measurements from patent US20060166969A1, “AMPA antagonists for the treatment of dizziness, including vertigo and Meniere's disorder” (priority 2005, published 2006).

Assays:
AMPA receptors = conditions: qualitative statement; affinity for AMPA receptors said to have been published; cited from earlier work
[1] = tested on: dizziness, including vertigo and Menière's disorder; experiment: Animal models for dizziness, including vertigo and Menière's disorder; format: in vivo; conditions: animal models not specified; no data given
From the text: Animal models for dizziness, vertigo and Menière's disorder include, but are not limited
Electronystagmography in rats (see Fischer, A. J. et al., “Electronystagmography in the laboratory rat”, Acta Otolaryngol., 88, 412-419,1979).
Gentamycin induced nystagmus in guinea pigs (see Okuda, T. et al., “Inner ear changes with intracochlear gentamicin administration in Guinea pigs”, Laryngoscope, 114, 694-697, 2004).
Unilateral peripheral vestibular deafferentation in guinea pigs (see Dutia, M. B. et al., “The opioid receptor antagonist, naloxone, enhances ocular motor compensation in guinea pig following peripheral vestibular deafferentation”, Exp. Neurol., 141,141-144,1996), or rats (see Guilding, C. et al., “11-Beta-hydroxysteroid dehydrogenase type 1 activity in medial vestibular nucleus and cerebellum after unilateral vestibular deafferentation in the rat”, Stress, 7(2),127-130, 2004).
Unilateral labyrinthectomy in rats (see Johnston, A. R. et al., “Differential regulation of GABA(A) and GABA(B) receptors during vestibular compensation”, Neuroreport.;12(3), 597-600, 2001; and Inoue, S. et al., “Glutamate release in the rat medial vestibular nucleus following unilateral labyrinthectomy using in vivo microdialysis”, Brain Res., 991(1-2), 78-83, 2003). […]

Cc1nc2n(c1C)N=C(c1ccccc1)c1cc3c(cc1C2)OCO3 [8,9-dimethyl-5-phenyl-11H-1,3-dioxolo[4,5-h]imidazo[1,2-c][2,3]benzo-diazepine]
AMPA receptor antagonistic activity (AMPA receptors): AMPA receptor antagonistic activity | activity in animal models for dizziness, including vertigo and Menière's disorder [1]: active
